The values that follow come from US10092582B2, “Cell mobilization agent containing lysophospholipid with retinoic acid introduced” (NOF CORPORATION, priority 2014, dated 2018).

In test [1] the test system is human acute monocytic leukaemia cell line (THP-1). The test can be described thus: Monocyte mobilization effect: THP-1 cell migration rate in Transwell. In kind it is cell-based. Particulars: 3 hr; for cell migration rate (monocyte mobilization effect) compared to the control: 10 nM, FIG. 1, Ret-LysoPC of Example 1-2, Ret-PC of Comparative Example 1. The method, then: A cell suspension of human acute monocytic leukaemia cell line (hereinafter to be referred to as “THP-1”) (manufactured by ATCC) was centrifuged, the supernatant was discarded, 0.1% bovine serum albumin (fatty acid-free, manufactured by SIGMA ALDRICH)-containing RPMI-1640 (manufactured by Life Technologies) was added to give a dispersion. It was centrifuged again, the supernatant was discarded to give cell pellets. 0.1% Bovine serum albumin-containing RPMI-1640 was added to adjust the cell density to 1×10^6 cells/ml. The cell suspension (100 μl/well) was added to Transwell (manufactured by Corning Incorporated, φ6.5 mm, pore size φ8.0 μm). The cells were incubated at 37° C., 5% CO2 for 30 min, and a measurement solution (all-trans retinoic acid (manufactured by Tokyo Chemical Industry Co., Ltd.) (hereinafter to be referred to as “RA”), Ret-PC of Comparative Example 1 or Ret-LysoPC of Example 1-2 dissolved in 0.1% bovine serum albumin-containing RPMI-1640 to 10 nM, and 0.1% bovine serum albumin-containing RPMI-1640 alone) was placed in the lower part of the multiple well plate (600 μl/well). After incubation at 37° C., 5% CO2 for 3 hr, the cell suspension in the multiple well plate was collected, cell density was measured by a hemacytometer and the cell migration rate was determined. The cell migration rate was defined as follows. cell migration rate (%)=(number of cells in multiple well plate)/(number of cells added to Transwell)
A cell suspension of THP-1 was centrifuged, the supernatant was discarded, 0.1% bovine serum-containing RPMI-1640 was added to give a dispersion. It was centrifuged again, the supernatant was discarded to give cell pellets. 0.1% Bovine serum albumin-containing RPMI-1640 was added to adjust the cell density to 1×10^6 cells/ml. The cell suspension (100 μl/well) was added to Transwell (manufactured by Corning Incorporated, φ6.5 mm, pore size φ8.0 μm). The cells were incubated at 37° C., 5% CO2 for 30 min, and a measurement solution (Ret-LysoPC of Examples 1-1 and 1-2 dissolved in 0.1% bovine serum albumin-containing RPMI-1640 to 10 nM, and 0.1% bovine serum albumin-containing RPMI-1640 alone) was placed in the lower part of the multiple well plate (600 μl/well). After incubation at 37° C., 5% CO2 for 3 hr, the cell suspension in the multiple well plate was collected, cell density was measured by a hemacytometer and the cell migration rate was determined.
Using human acute monocytic leukaemia cell line (THP-1) (manufactured by ATCC), a monocyte migration effect of each sample was evaluated. A cell suspension of THP-1 was centrifuged, the supernatant was discarded, 0.1% bovine serum-containing RPMI-1640 was added to give a dispersion. It was centrifuged again, the supernatant was discarded to give cell pellets. 0.1% Bovine serum albumin-containing RPMI-1640 was added to adjust the cell density to 1×10^6 cells/ml. The cell suspension (100 μl/well) was added to Transwell (manufactured by Corning Incorporated, φ6.5 mm, pore size φ8.0 μm). The cells were incubated at 37° C., 5% CO2 for 30 min, and a measurement solution (C18:0-LysoPC (COATSOME MC-80H; manufactured by NOF CORPORATION), Ret-LysoPC of Example 2 or S1P (manufactured by Toronto Research Chemicals) dissolved in 0.1% bovine serum albumin-containing RPMI-1640, and 0.1% bovine serum albumin-containing RPMI-1640 alone) was placed in the lower part of the multiple well plate ([…]). After incubation at 37° C., 5% CO2 for 3 hr, the cell suspension in the multiple well plate was collected, cell density was measured by a hemacytometer and the cell migration rate was determined.

In test [2] the test system is Human bone marrow-derived mesenchymal stem cell line (UE7T-13). Put plainly: Mesenchymal stem cell mobilization effect: UE7T-13 cell migration ratio in Transwell. In kind it is cell-based. Particulars: 4 hr. The method, then: Human bone marrow-derived mesenchymal stem cell line (UE7T-13) (manufactured by National Institute of Biomedical Innovation JCRB Cell Bank) was previously cultured in serum-free DMEM (manufactured by SIGMA ALDRICH) for 24 hr, and 0.25% trypsin/1 mM EDTA solution (manufactured by SIGMA ALDRICH) was added to give a dispersion. 10% Serum-containing DMEM (Powered by 10 medium; manufactured by GlycoTechnica Ltd.) was added, the cell suspension was centrifuged, the supernatant was discarded, 0.1% bovine serum albumin (fatty acid-free, manufactured by SIGMA ALDRICH)-containing DMEM (manufactured by SIGMA ALDRICH) was added to give a dispersion. It was centrifuged again, the supernatant was discarded to give cell pellets. 0.1% Bovine serum albumin-containing DMEM was added to adjust the cell density to 4×10^5 cells/mi. The cell suspension (100 μl/well) was added to Transwell (manufactured by Corning Incorporated, φ6.5 mm, pore size φ8.0 μm). The cells were incubated at 37° C., 5% CO2 for 30 min, and a measurement solution (Ret-LysoPC of Example 1-2 dissolved in 0.1% bovine serum albumin-containing DMEM to 10 nM, or 0.1% bovine serum albumin-containing DMEM alone) was placed in the lower part of the multiple well plate (600 μl/well). After incubation at 37° C., 5% CO2 for 4 hr, the supernatant in the insert was removed. The cells on the upper membrane side were removed, the cells on the lower membrane side were immobilized with 4% para-formaldehyde solution, and stained with crystalviolet solution. They were washed with water, dried, and the number of cells per one field was measured by microscopic observation. The cell migration ratio was defined as follows. cell migration ratio=(number of cell per one membrane field when each measurement solution was used)/(number of cells per one membrane field of control)
The control refers to 0.1% bovine serum albumin-containing DMEM with no addition.
Human bone marrow-derived mesenchymal stem cell line (UE7T-13) (manufactured by National Institute of Biomedical Innovation JCRB Cell Bank) was previously cultured in serum-free DMEM (manufactured by SIGMA ALDRICH) for 24 hr, and 0.25% trypsin/1 mM EDTA solution (manufactured by SIGMA ALDRICH) was added to give a dispersion. 10% Serum-containing DMEM (Powered by 10 medium; manufactured by GlycoTechnica Ltd.) was added, the cell suspension was centrifuged, the supernatant was discarded, 0.1% bovine serum albumin (fatty acid-free, manufactured by SIGMA ALDRICH)-containing DMEM (manufactured by SIGMA ALDRICH) was added to give a dispersion. It was centrifuged again, the supernatant was discarded to give cell pellets. […] They were washed with water, dried, and the number of cells per one field was measured by microscopic observation. […]

The test system of test [3] is monocytes and macrophages. Particulars: background art, non-patent documents 2, 3; cited from earlier work.
Setting [4] is: 100 nM, FIG. 6, FIG. 7, Ret-LysoPC of Example 2.

Bounds are passed on as bounds.

With `CC1=C(/C=C/C(C)=C/C=C/C(C)=C/C(=O)OCC(COP(=O)([O-])OCC[N+](C)(C)C)OC(=O)/C=C(C)/C=C/C=C(C)/C=C/C2=C(C)CCCC2(C)C)C(C)(C)CCC1` (stereo not drawn) [Ret-PC, diretinoyl phosphocholine], the “cell migration rate (monocyte mobilization effect) compared to the control” value (“cell migration rate … compared to the control” for short) in test [1] is given as “did not show cell migration”.
Turning to `CCCCCCCCCCCCC/C=C/[C@@H](O)[C@@H](N)COP(=O)(O)O` [Example S1P, sphingosine-1-phosphoric acid], the “monocyte mobilization effect (cell migration rate)” value in test [1] (1 nM, FIG. 7) is listed as “did not show a significant (p<0.05) monocyte mobilization effect”; in test [1] (setting [4]), “did not show a significant (p<0.05) monocyte mobilization effect”. Moreover, the “mesenchymal stem cell mobilization effect (cell migration ratio)” value is on record as “did not show a significant (p<0.05) mesenchymal stem cell mobilization effect” in test [2] (10 nM, FIG. 8) and “did not show a significant (p<0.05) mesenchymal stem cell mobilization effect” in test [2] (100 nM, FIG. 8). Further, the “concentration at which mobilization of monocytes and macrophages is suppressed (acting on receptor 2)” value in test [3] is ≥ 100 nM. In addition, the “effective concentration range for mobilization of monocytes and macrophages” value in test [3] was “around 10 nM”.
`CC1=C(/C=C/C(C)=C/C=C/C(C)=C/C(=O)OCC(O)COP(=O)([O-])OCC[N+](C)(C)C)C(C)(C)CCC1` (stereo not drawn) [Ret-LysoPC, 1-retinoyl-sn-glycero-3-phosphocholine]: in test [1], the “cell migration rate … compared to the control” value is “significant (P<0.05) cell migration”. The “monocyte mobilization effect (cell migration rate)” value was “present” in test [1] (setting [4]) and “showed a significant monocyte mobilization effect” in test [1] (any of 1-100 nM, FIG. 7, Ret-LysoPC of Example 2). Also, the “cell migration ratio (mesenchymal stem cell mobilization effect) compared to the control” value in test [2] (10 nM, FIG. 3, Ret-LysoPC of Example 1-2) is recorded as “significant cell migration”. Further, the “mesenchymal stem cell mobilization effect (cell migration ratio)” value in test [2] (any of 1-100 nM, FIG. 8, Ret-LysoPC of Example 1-2) is listed as “showed a significant mesenchymal stem cell mobilization effect”.
On to `CCCCCCCCCCCCCCCCCC(=O)OC[C@@H](O)COP(=O)([O-])OCC[N+](C)(C)C` [C18:0-LysoPC, 1-stearoyl-lysophosphocholine], for which the “monocyte mobilization effect (cell migration rate)” value in test [1] (setting [4]) was “absent”. Further, in test [3], the “concentration at which a monocyte/macrophage mobilizing effect is exhibited” value is ≥ 10 µM.
Take `CC1=C(/C=C/C(C)=C/C=C/C(C)=C/C(=O)O)C(C)(C)CCC1` [RA, all-trans retinoic acid]: the “cell migration rate … compared to the control” value in test [1] is “did not show cell migration”.
